Reference: patent US6245790A, “Oxazole compounds useful as PGE2 agonists and antagonists” (Fujisawa Pharmaceutical Co., Ltd., priority 1997, dated 2001)

Columns and labels:
Mouse B Lymphocytes = assay: Effect on PGE2-induced IgE and IgG1 secretion in mouse B lymphocytes (LPS and IL-4, ELISA); assay type: cell-based, mouse (BDF1); conditions: + 10^-5 M Test Compound, LPS and IL-4, 6 days, Mean ± S.E.M. (n = 4)
Procedure: Effect on IgE and IgG1 Secretion in Mouse B Lymphocytes
Inhibitory properties of a test compound against PGE2 -induced IgE and IgG1 secretion in isolated resting B lymphocytes of mice were tested. Resting mouse B lymphocytes were isolated from spleens of 12-week-old BDF1 male mice (Clea Japan Inc.) using adherent cell depletion, negative selection by FITC-anti-Thy 1.2 (30H12), FITC-anti-CD4 (GK1.5), FITC-anti-CD11b (M1/70) and FITC-anti-CD8a (5.-6.7) (Pharmingen) with anti-FITC Ab coating magnetic beads (PerSpective Daiagnostics) and Percoll gradient (Pharmacia). Resting B lymphocytes were cultured in flat-bottomed96-well microtiter plates (Becton Dickinson) at 1×10^6 cells per ml and preincubated with a test compound or DMSO control for 30 minutes. Then PGE2 were added at 10^-6 M. After 1 hour, LPS and IL-4 were added and incubated at 37° C. in a humidified atmosphere with 5% CO2. After 6 days, supernatants were collected and IgE and IgG1 were measured by the ELISA.

[1] = target: T1, prostanoide receptor subtype (human EP4) (Homo sapiens, UniProt P35408); assay: Binding assay using expression of prostanoide receptor subtype ([3H]-PGE2 competition, COS-7 membrane fraction); conditions: compound at 10 μM, 1 hour at 30° C., COS-7 cells transfected human EP4
T1 construct: expressed in transfected cells; host or cells: COS-7
Procedure: Binding Assay Using Expression of Prostanoide Receptor Subtype
The membrane fraction was prepared using COS-7 cells transfected prostanoide receptor subtype (human EP4).
The Standard assay mixture contained membrane fraction, [^3 H]-PGE2 in final volume of 0.25 ml was incubated for 1 hour at 30° C. The reaction was terminated by that the mixture was rapidly filtered through a glass filter (GF/B). Then the filter was washed by 4 ml of ice-cold buffer at two times. The radioactivity associated with the filter was measured by liquid scintillation counting.
In the experiment for competition of specific [^3 H]-PGE2 was added at a concentration of 10 μM. The following buffer was used in all reactions.
Buffer: 20 mM Mes (pH 6.0), 1 mM EDTA, 10 mM MgCl2

T1 sequence (P35408 whole entry): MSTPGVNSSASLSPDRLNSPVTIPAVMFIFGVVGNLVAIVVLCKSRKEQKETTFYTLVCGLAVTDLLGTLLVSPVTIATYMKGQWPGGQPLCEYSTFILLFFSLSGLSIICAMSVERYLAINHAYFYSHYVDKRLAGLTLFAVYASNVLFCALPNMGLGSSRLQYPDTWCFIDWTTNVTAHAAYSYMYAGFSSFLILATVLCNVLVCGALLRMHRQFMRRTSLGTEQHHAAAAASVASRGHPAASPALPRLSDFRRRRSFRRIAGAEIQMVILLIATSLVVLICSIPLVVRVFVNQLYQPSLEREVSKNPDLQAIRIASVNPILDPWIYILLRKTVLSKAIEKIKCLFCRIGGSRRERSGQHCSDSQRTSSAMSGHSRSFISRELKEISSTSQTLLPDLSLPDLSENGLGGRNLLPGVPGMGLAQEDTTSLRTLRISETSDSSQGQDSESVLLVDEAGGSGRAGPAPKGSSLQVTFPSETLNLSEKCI

Row | inhibition at 10 µM [1] | Structure (SMILES) | IgG1 secretion (Mouse B Lymphocytes; + 10^-6 M PGE2, # p < 0.01 v.s. Control (-PGE2)) | IgE secretion (Mouse B Lymphocytes; + 10^-6 M PGE2, * p < 0.01 v.s. Control (+10^-6 M PGE2)) | IgE secretion (Mouse B Lymphocytes; -PGE2) | IgG1 secretion (Mouse B Lymphocytes; -PGE2)
1 | – | O=C([O-])c1cccc(C[C@@H]2CCCC=C2c2nc(-c3ccccc3)c(-c3ccccc3)o2)c1.[Na+] [Test Compound, Sodium (S)-3-{[2-(4,5-diphenyloxazol-2-yl)-2-cyclohexen-1-yl]methyl}benzoate] | 1607.6 ± 150.9 ng/mL | 37.0 ± 7.0 ng/mL | 21.2 ± 5.7 ng/mL | 1053.0 ± 176.2 ng/mL
2 | > 80% | NC(=O)COc1cccc(C[C@@H]2CCCC=C2c2nc(-c3ccccc3)c(-c3ccccc3)o2)c1 [Test Compound (3), (S)-{3-{[2-(4,5-Diphenyloxazol-2-yl)-2-cyclohexen-1-yl]-methyl}phenoxy}actamide] | – | – | – | –
3 | > 80% | COc1cccc(C[C@@H]2CCC=C2c2nc(-c3ccccc3)c(-c3ccccc3)o2)c1 [Test Compound (1), (S)-2-(4,5-Diphenyloxazol-2-yl)-1-(3-methoxybenzyl)-2-cyclopentene] | – | – | – | –
4 | > 80% | O=C(O)c1ccc(C[C@@H]2CCCC=C2c2nc(-c3ccccc3)c(-c3ccccc3)o2)cc1 [Test Compound (2), (S)-4-{[2-(4,5-Diphenyloxazol-2-yl)-2-cyclohexen-1-yl]-methyl}benzoic acid] | – | – | – | –
